Test results reported in ChEMBL document CHEMBL4184104, “Identification of novel allosteric inhibitors of mutant isocitrate dehydrogenase 1 by cross docking-based virtual screening” (Bioorg Med Chem Lett, 2018).
pIC50: −log10 of the molar value.

Tests used:
[1] = system: Isocitrate dehydrogenase [NADP] cytoplasmic (Homo sapiens), O75874 [R132H]; experiment: Inhibition of IDH1 R132H mutant (unknown origin) expressed in HEK293T cells assessed as D2-HG level at 10 uM after 72 hrs relative to control; format: cell-based; conditions: values are per cent of control
Chain of Isocitrate dehydrogenase [NADP] cytoplasmic (Homo sapiens), O75874 [R132H] (O75874 whole entry R132H): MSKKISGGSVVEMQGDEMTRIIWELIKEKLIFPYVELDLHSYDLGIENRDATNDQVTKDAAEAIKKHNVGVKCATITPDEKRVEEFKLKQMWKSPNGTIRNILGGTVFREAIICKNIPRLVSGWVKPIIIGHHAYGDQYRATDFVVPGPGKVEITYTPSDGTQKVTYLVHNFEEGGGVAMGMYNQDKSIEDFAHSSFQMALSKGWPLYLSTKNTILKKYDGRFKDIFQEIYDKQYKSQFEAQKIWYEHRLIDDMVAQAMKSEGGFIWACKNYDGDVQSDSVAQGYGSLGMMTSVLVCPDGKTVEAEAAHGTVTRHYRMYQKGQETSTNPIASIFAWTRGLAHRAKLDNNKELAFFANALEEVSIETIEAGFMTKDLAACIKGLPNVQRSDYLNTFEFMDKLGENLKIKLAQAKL

[2] = system: Isocitrate dehydrogenase [NADP] cytoplasmic (Homo sapiens), O75874 [R132C]; experiment: Inhibition of IDH1 R132C mutant (unknown origin) expressed in HEK293T cells assessed as D2-HG level at 10 uM after 72 hrs relative to control; format: cell-based; conditions: values are per cent of control
Chain of Isocitrate dehydrogenase [NADP] cytoplasmic (Homo sapiens), O75874 [R132C] (O75874 whole entry R132C): as the sequence (O75874 whole entry R132H) above, with H132C counted along it

[3] = system: HEK-293T; experiment: (§1) Cytotoxicity against HEK293T cells harboring pMXs-IDH1wt-IRES-BsdRs assessed as cell survival at 50 uM after 72 hrs by CellTiterGlo assay relative to control; format: cell-based; conditions: human, hek-293t, 72 h, 50 µM
[4] = system: Isocitrate dehydrogenase [NADP] cytoplasmic (Homo sapiens), O75874 [R132C]; experiment: Inhibition of IDH1 R132C mutant (unknown origin) expressed in HEK293T cells assessed as D2-HG level at 50 uM after 72 hrs relative to control; format: cell-based; conditions: values are per cent of control
[5] = system: Isocitrate dehydrogenase [NADP] cytoplasmic (Homo sapiens), O75874 [R132H]; experiment: Inhibition of IDH1 R132H mutant (unknown origin) expressed in HEK293T cells assessed as D2-HG level at 50 uM after 72 hrs relative to control; format: cell-based; conditions: values are per cent of control
[6] = target: Isocitrate dehydrogenase [NADP] cytoplasmic (Homo sapiens, UniProt O75874, R132C); experiment: Inhibition of IDH1 R132C mutant (unknown origin) expressed in HEK293T cells assessed as reduction in D2-HG level after 30 mins by resazurin-based fluorescence assay; format: cell-based
Chain of Isocitrate dehydrogenase [NADP] cytoplasmic (Homo sapiens, UniProt O75874, R132C) (O75874 2-414 R132C limits assumed): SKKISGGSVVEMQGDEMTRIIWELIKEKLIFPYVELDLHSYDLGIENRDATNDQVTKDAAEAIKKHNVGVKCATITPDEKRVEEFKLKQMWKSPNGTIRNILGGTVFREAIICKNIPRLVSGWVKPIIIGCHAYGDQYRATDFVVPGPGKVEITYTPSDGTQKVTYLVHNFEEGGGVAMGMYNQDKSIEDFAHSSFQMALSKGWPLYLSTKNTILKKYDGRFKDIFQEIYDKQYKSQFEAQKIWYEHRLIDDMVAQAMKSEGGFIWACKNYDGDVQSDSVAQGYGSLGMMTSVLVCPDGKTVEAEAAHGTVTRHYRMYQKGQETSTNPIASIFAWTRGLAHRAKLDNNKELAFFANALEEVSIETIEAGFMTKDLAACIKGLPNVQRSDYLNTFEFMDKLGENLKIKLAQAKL

[7] = target: Isocitrate dehydrogenase [NADP] cytoplasmic (Homo sapiens, UniProt O75874, R132H); experiment: Inhibition of IDH1 R132H mutant (unknown origin) expressed in HEK293T cells assessed as reduction in D2-HG level after 30 mins by resazurin-based fluorescence assay; format: cell-based
Chain of Isocitrate dehydrogenase [NADP] cytoplasmic (Homo sapiens, UniProt O75874, R132H) (O75874 2-414 R132H limits assumed): as the sequence (O75874 2-414 R132C limits assumed) above, with C131H counted along it

[8] = Effective permeability of the compound at 25 ug/ml after 18 hrs by BBB-PAMPA method; format: ADME; conditions: read-out: Peff
[9] = as §1; format: cell-based, HEK-293T; conditions: human, HEK293T cells harboring pMXs-IDH1wt-IRES-BsdRs; read-out: Survival
[10] = Cytotoxicity against HEK293T cells harboring pMXs-IDH1wt-IRES-BsdRs assessed as cell survival at 10 uM after 72 hrs by CellTiterGlo assay relative to control; format: cell-based, HEK-293T; conditions: human, read-out: Survival

Row | SMILES | response, % of control [1] | response, % of control [2] | Activity [3] | response, % of control [4] | response, % of control [5] | pIC50 [6] | pIC50 [7] | Papp at 18 h, 25 ug/ml [8] | viability at 72 h, 50 µM [9] | viability at 72 h, 10 µM [10]
1 | O=C(Nc1cccc(NC(=O)c2cccc(S(=O)(=O)N3CCCCC3)c2)c1)c1ccc(Br)cc1 | 58.2% | 61.1% | Non-Toxic | 109% | 59.5% |  |  |  |  | 
2 | COc1cccc(C(=O)Nc2cccc(OCC(=O)c3ccccc3)c2)c1 | 94.6% | 138% | Non-Toxic | 103% | 73.7% |  |  |  |  | 
3 | COc1ccccc1NC(=O)c1c(NCc2cccnc2)sc2c1CC[C@H](C)C2 | 96.7% | 123% | Non-Toxic | 34.7% | 32% |  |  |  |  | 
4 | Cc1ccc(NC(=O)c2cc([N+](=O)[O-])cc3c2-c2ccc([N+](=O)[O-])cc2C3=O)cc1 | 103% |  | Non-Toxic | 52.7% | 72.5% |  |  |  |  | 
5 | COC(=O)c1ccccc1NC(=O)CNCn1cnc2ccccc21 | 86.2% | 86.1% | Non-Toxic | 50.4% | 66.3% |  |  |  |  | 
6 | COC(=O)C1C(=O)C2=C(CC1C)Nc1ccccc1NC2c1c[nH]c2ccccc12 (configuration not stated) |  |  |  |  |  | 4.30 | 4.30 |  |  | 
7 | CC(O)c1cccc(NC(=O)c2cnn3c2NC(c2ccccc2)CC3C(F)(F)F)c1 (configuration not stated) | 91.3% | 79.3% | Non-Toxic | 40.9% | 39.9% |  |  |  |  | 
8 | CC(C)CCOc1cccc(C(=O)Nc2ccc(C(=O)Nc3cccc4ccccc34)cc2)c1 | 54.9% | 48.4% |  | 43.6% | 49.5% |  |  | 8.15 ×10⁻⁶ cm/s | 88.6% | 91.3%
9 | Cc1ccccc1C(C(=O)NC1CCCCC1)N(C(=O)Cn1ccnc1C)c1cccc(F)c1 (configuration not stated) | 1.3% | 13.3% |  | 0.9% | 0.4% |  |  |  |  | 
